This is an account of results in paper PMC7822874, “Chemoprotective antimalarials identified through quantitative high-throughput screening of Plasmodium blood and liver stage parasites” (Scientific Reports, 2021).

Where two headings read alike, the source gives them in different places.

What is called AC50 is the concentration giving half of the maximal activity seen.

Common to all, as to type: cell-based, Plasmodium falciparum
Assay [1] concerns P. falciparum Dd2 (clone B2) asexual blood stage parasites. Description: P. falciparum Dd2 asexual blood stage SYBR Green-I 72 h proliferation assay (qHTS). To be noted: Plasmodium falciparum. For orientation: Quantitative high-throughput screening tests each substance at several concentrations.
For assay [2], the system named is P. falciparum Dd2 Cytb G131S. Description: SYBR Green ABS proliferation assay, NCGC00374598 selected clone C11. To be noted: Plasmodium falciparum. Put shortly:
(§1)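 Asexual blood-stage proliferation of cytochrome b-mutant Dd2 clones after 72 h compound exposure at 37 °C in low-oxygen gas, quantified as control-normalized SYBR Green-I fluorescence; differences tested by two-sided t-test.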

In assay [3] the test system is P. falciparum Dd2 Cytb V259L. Briefly: SYBR Green ABS proliferation assay, NCGC00473217 selected clone F06. To be noted: for AC50: Plasmodium falciparum. An outline of the steps:
as §1

Assay [4] concerns P. falciparum Dd2 Cytb A122D. Description: SYBR Green ABS proliferation assay, NCGC00473217 selected clone F12. The note with it: for AC50: Plasmodium falciparum. An outline of the steps: as §1
For assay [5], the system named is P. falciparum Dd2 Cytb F123L. Description: SYBR Green ABS proliferation assay, NCGC00473217 selected clone G08. The note with it: for AC50: Plasmodium falciparum. Put shortly: as §1
Where [6] appears, read: DD2, Dd2 parental, Hill fit, averaged from three independent replicates, top concentration 29 µM, read-out: Average AC50 (Log[M]), Dd2 (converted).
Where [7] appears, read: DD2, […], averaged from three independent replicates, top concentration 29 µM, read-out: Average AC50 (Log[M]), NCGC00374598 clone C11 (Cytb G131S) (converted).
[8] abbreviates: DD2, […], averaged from three independent replicates, top concentration 29 µM, read-out: Average AC50 (Log[M]), NCGC00473217 clone F06 (Cytb V259L) (converted).
Where [9] appears, read: DD2, […], averaged from three independent replicates, top concentration 29 µM, read-out: Average AC50 (Log[M]), NCGC00473217 clone F12 (Cytb A122D) (converted).
[10] abbreviates: DD2, […], averaged from three independent replicates, top concentration 29 µM, read-out: Average AC50 (Log[M]), NCGC00473217 clone G08 (Cytb F123L) (converted).

On to `Cc1cc(Nc2ccc(S(F)(F)(F)(F)F)cc2)n2nc(C(C)(F)F)nc2n1` [DSM265, reference compound], for which the AC50 in assay [1] (DD2, 72 h, SYBR Green 72 h, WT Dd2-B2, read-out: AC50 Log[M] ± SD, Dd2-B2 (parental line) (converted)) was 3.8e-08 M; in assay [1] (DD2, Suppl Table 6, read-out: AC50 (mM), WT (Dd2-B2)), 3.8e-08 M; in assay [2] (DD2, NCGC00374598 selected clone, read-out: AC50 Log[M] ± SD, Cytb G131S (converted)) it was 2.4e-08 M; in assay [2] (DD2, Suppl Table 6, read-out: AC50 (mM), Dd2 Cytb G131S), 2.4e-08 M; in assay [3] (DD2, NCGC00473217 selected clone, read-out: AC50 Log[M] ± SD, Cytb V259L (converted)), 3.16e-08 M; in assay [3] (DD2, Suppl Table 6, read-out: AC50 (mM), Dd2 Cytb V259L), 3.16e-08 M. Further, the AC50 was 1.41e-08 M in assay [4] (DD2, NCGC00473217 selected clone, read-out: AC50 Log[M] ± SD, Cytb A122D (converted)); 1.41e-08 M in assay [4] (DD2, Suppl Table 6, read-out: AC50 (mM), Dd2 Cytb A122D); 1.95e-08 M in assay [5] (DD2, NCGC00473217 selected clone, read-out: AC50 Log[M] ± SD, Cytb F123L (converted)); 1.95e-08 M in assay [5] (DD2, Suppl Table 6, read-out: AC50 (mM), Dd2 Cytb F123L). In addition, the “susceptibility of V259L variant compared to parental line” value in assay [3] is “unchanged”. Moreover, the “susceptibility of A122D mutant compared to parental line” value in assay [4] was “significantly more susceptible”. In addition, in assay [5], the “susceptibility of F123L mutant compared to parental line” value is recorded as “significantly more susceptible”.
For `CC(C)CC1=N[S+](=O)([O-])c2cc(NC(=O)c3ccco3)ccc2N1C` [NCGC00510958-01], the AC50 in assay [1] (setting [6]) is 5.32e-06 M; in assay [2] (setting [7]), 2.82e-06 M; in assay [3] (setting [8]), 1.26e-05 M; in assay [4] (setting [9]), 5.02e-06 M; in assay [5] (setting [10]), 7.96e-07 M.
As to `CCCN1C(CC(C)C)=N[S+](=O)([O-])c2cc(NC(=O)c3cc4ccncc4[nH]3)ccc21` [NCGC00521877-01], the AC50 in assay [1] (setting [6]) is 2.24e-06 M; in assay [2] (setting [7]) it was 1.42e-06 M; in assay [3] (setting [8]), 7.67e-07 M; in assay [4] (setting [9]), 7.67e-07 M; in assay [5] (setting [10]), 9.29e-07 M.
Take `CCCN1C(CC(C)C)=N[S+](=O)([O-])c2cc(NC(=O)c3c(F)cccc3F)ccc21` [NCGC00531536-01]: the AC50 in assay [1] (setting [6]) was 1.59e-05 M; in assay [2] (setting [7]), 1.22e-05 M; in assay [3] (setting [8]) it was 1.22e-05 M; in assay [4] (setting [9]), 1e-05 M; in assay [5] (setting [10]), 5.64e-06 M.
As to `CCCN1C(CC(C)C)=N[S+](=O)([O-])c2cc(NC(=O)C3CCCCC3)ccc21` [NCGC00521107-01], the AC50 in assay [1] (setting [6]) was 6.32e-06 M; in assay [2] (setting [7]) it was 6.32e-06 M; in assay [3] (setting [8]) it was 5.02e-06 M; in assay [4] (setting [9]), 1.04e-05 M; in assay [5] (setting [10]), 8.93e-06 M.
As for `CCCN1C(CC(C)C)=N[S+](=O)([O-])c2cc(NC(=O)c3cccc(F)c3)ccc21` [NCGC00523538-01], the AC50 in assay [1] (setting [6]) was 3.85e-06 M; in assay [2] (setting [7]) it was 2.08e-06 M; in assay [3] (setting [8]) it was 1e-06 M; in assay [4] (setting [9]), 2.72e-06 M; in assay [5] (setting [10]), 1.12e-05 M.
As to `CCCN1C(CC(C)C)=N[S+](=O)([O-])c2cc(NC(=O)Nc3ccccc3)ccc21` [NCGC00521878-01], the AC50 in assay [1] (setting [6]) is 3.56e-06 M; in assay [2] (setting [7]), 7.96e-06 M; in assay [3] (setting [8]) it was 1.04e-05 M; in assay [4] (setting [9]) it was 8.28e-06 M; in assay [5] (setting [10]) it was 1.59e-05 M.
The matching figures for `CCCN1C(CC(C)C)=N[S+](=O)([O-])c2cc(NC(=O)c3sccc3F)ccc21` [NCGC00523542-01]: 1.59e-06 M, 1.78e-06 M, 5.43e-06 M, 1.31e-06 M and 7.52e-06 M.
Taken in the same sequence, the figures for `CCCN1C(CC(C)C)=N[S+](=O)([O-])c2cc(NC(=O)c3ccccc3OC(F)(F)F)ccc21` [NCGC00531535-01] were 1.59e-05 M, 8.93e-06 M, 9.29e-06 M, 1.08e-05 M and 1.04e-05 M.
For the compound `CCCN1C(CC(C)C)=N[S+](=O)([O-])c2cc(NC(=O)c3cc4ccccc4s3)ccc21` [NCGC00521881-01], the AC50 in assay [1] (setting [6]) was 1.65e-05 M; in assay [2] (setting [7]), 1.42e-05 M; in assay [3] (setting [8]), 6.84e-06 M; in assay [4] (setting [9]) it was 4.48e-06 M; in assay [5] (setting [10]), 7.1e-06 M.
Regarding `CCCN1C(CC(C)C)=N[S+](=O)([O-])c2cc(NC(=O)c3cc4c(s3)CCC4)ccc21` [NCGC00521150-01], the AC50 was 1.59e-05 M in assay [1] (setting [6]); 1.04e-05 M in assay [2] (setting [7]); 1.12e-05 M in assay [3] (setting [8]); 1.59e-05 M in assay [4] (setting [9]); 1.12e-05 M in assay [5] (setting [10]).
As for `CCCN1C(CC(C)C)=N[S+](=O)([O-])c2cc(NC(=O)c3ccc(Cl)s3)ccc21` [NCGC00523535-01], the AC50 is 1.53e-06 M in assay [1] (setting [6]); 1e-06 M in assay [2] (setting [7]); 7.1e-06 M in assay [3] (setting [8]); 5.86e-06 M in assay [4] (setting [9]); 9.66e-06 M in assay [5] (setting [10]).
